In patent US7189680B2, “5-halo-6-aryl[1,2,4]triazolo[1,5-a]pyrimidin-7-amines” (Bayer Cropscience AG, priority 2001, dated 2007):

Test system: not listed separately
Experiment: logP determination by HPLC (EEC directive 79/831 Annex V. A8)
Format: physicochemical
Conditions: HPLC gradient method, acetonitrile/0.1% aqueous phosphoric acid; Table 1
Procedure: *) The logP values were determined in accordance with EEC directive 79/831 Annex V. A8 by HPLC (gradient method, acetonitrile/0.1% aqueous phosphoric acid)

| logP* | Structure (SMILES) |
| --- | --- |
| 2.03 | N#CCCNNc1c(-c2c(F)cc(F)cc2F)c(Cl)nc2ncnn12 [Example 23] |
| 1.68 | OCCNNc1c(-c2c(F)cc(F)cc2F)c(Cl)nc2ncnn12 [Example 33] |
| 2.12 | CONc1c(-c2c(F)cc(F)cc2F)c(Cl)nc2ncnn12 [Example 31] |
| 3.57 | CC(C)CN(N)c1c(-c2cc(C(F)(F)F)ccc2C(F)(F)F)c(Cl)nc2ncnn12 [Example 137] |
| 3.3 | Fc1ccc(CONc2c(-c3c(F)c(F)c(F)c(F)c3F)c(Cl)nc3ncnn23)cc1 [Example 72] |
| 3.63 | Fc1cccc(F)c1-c1c(Cl)nc2ncnn2c1NOCc1cc(Cl)cc(Cl)c1 [Example 104] |
| 3.3 | Fc1cccc(F)c1-c1c(Cl)nc2ncnn2c1NOCc1cccc(C(F)(F)F)c1 [Example 108] |
| 3.15 | Fc1ccccc1-c1c(Cl)nc2ncnn2c1NOCc1cccc(Cl)c1 [Example 60] |
| 3.89 | CC(C)CNNc1c(-c2c(Cl)c(F)cc(C(F)(F)F)c2Cl)c(Cl)nc2ncnn12 [Example 44] |
| 3.65 | Fc1c(F)c(F)c(-c2c(Cl)nc3ncnn3c2NOCc2c(Cl)cccc2Cl)c(F)c1F [Example 120] |
| 3.16 | Fc1ccccc1-c1c(Cl)nc2ncnn2c1NOCc1ccc(Cl)cc1 [Example 61] |
| 3.54 | Fc1cc(F)c(-c2c(Cl)nc3ncnn3c2NOCc2ccc(OC(F)(F)F)cc2)c(F)c1 [Example 11] |
| 3.33 | NN(c1c(-c2c(F)cc(F)cc2F)c(Cl)nc2ncnn12)C1CCCCC1 [Example 125] |
| 1.92 | CONc1c(-c2c(F)cccc2F)c(Cl)nc2ncnn12 [Example 32] |
| 2.99 | Fc1ccc(CONc2c(-c3c(F)cc(F)cc3F)c(Cl)nc3ncnn23)cc1 [Example 83] |
| 4.02 | Fc1c(F)c(F)c(-c2c(Cl)nc3ncnn3c2NOCc2ccc(Cl)cc2Cl)c(F)c1F [Example 114] |
| 2.89 | C=CCONc1c(-c2c(F)c(F)c(F)c(F)c2F)c(Cl)nc2ncnn12 [Example 74] |
| 3.28 | Fc1cc(F)c(-c2c(Cl)nc3ncnn3c2NNC2CCCCC2)c(F)c1 [Example 35] |
| 1.89 | CONc1c(-c2ccccc2F)c(Cl)nc2ncnn12 [Example 67] |

| logP* | Structure (SMILES) |
| --- | --- |
| 2.67 | CCC(C)ONc1c(-c2c(F)cccc2F)c(Cl)nc2ncnn12 (centres unmarked) [Example 48] |
| 2.06 | CCNNc1c(-c2ccccc2F)c(Cl)nc2ncnn12 [Example 89] |
| 2.98 | Fc1cc(F)c(-c2c(Cl)nc3ncnn3c2NNC2CCCC2)c(F)c1 [Example 55] |
| 3.32 | Fc1cccc(F)c1-c1c(Cl)nc2ncnn2c1NOCc1ccc(C(F)(F)F)cc1 [Example 105] |
| 3.78 | CON(CC(C)C)c1c(-c2c(F)cc(F)cc2F)c(Cl)nc2ncnn12 [Example 152] |
| 2.33 | CNN(C)c1c(-c2c(F)cc(F)cc2F)c(Cl)nc2ncnn12 [Example 18] |
| 4.07 | Fc1c(F)c(F)c(-c2c(Cl)nc3ncnn3c2NOCc2cc(Cl)cc(Cl)c2)c(F)c1F [Example 113] |
| 3.27 | CCC(C)N(N)c1c(-c2cccc3c2OC(F)(F)O3)c(Cl)nc2ncnn12 (centres unmarked) [Example 150] |
| 3.14 | Fc1cccc(F)c1-c1c(Cl)nc2ncnn2c1NOCc1ccc(Cl)cc1 [Example 47] |
| 2.26 | COCCN(N)c1c(-c2c(F)cc(F)cc2F)c(Cl)nc2ncnn12 [Example 128] |
| 3.21 | Fc1cc(F)c(-c2c(Cl)nc3ncnn3c2NOCc2nc(-c3ccccc3)cs2)c(F)c1 [Example 9] |
| 4.5 | CC(C)=NN(CC1CCCCC1)c1c(-c2c(F)cc(F)cc2F)c(Cl)nc2ncnn12 [Example 26] |
| 3.21 | CCC(C)NNc1c(-c2cccc3c2OC(F)(F)O3)c(Cl)nc2ncnn12 (centres unmarked) [Example 151] |
| 3.49 | CCCCONc1c(-c2c(F)c(F)c(F)c(F)c2F)c(Cl)nc2ncnn12 [Example 119] |
| 2.91 | CC(C)CN(N)c1c(-c2c(F)cc(F)cc2F)c(Cl)nc2ncnn12 [Example 131] |
| 3.25 | CC(C)CCNNc1c(-c2c(F)cc(F)cc2F)c(Cl)nc2ncnn12 [Example 78] |
| 2.78 | CC(C)CONc1c(-c2c(F)cccc2F)c(Cl)nc2ncnn12 [Example 8] |
| 2.42 | CC(C)ONc1c(-c2ccccc2F)c(Cl)nc2ncnn12 [Example 98] |
| 3.95 | CCC(C)NNc1c(-c2cc(C(F)(F)F)ccc2Cl)c(Cl)nc2ncnn12 (centres unmarked) [Example 147] |

| Structure (SMILES) | logP* |
| --- | --- |
| CCN(N)c1c(-c2c(F)cc(F)cc2F)c(Cl)nc2ncnn12 [Example 17] | 2.27 |

Same assay, conditions: HPLC; preparation examples; read-out: HPLC: logP

| Structure (SMILES) | chromatographic logP |
| --- | --- |
| CC(C)(C)ONc1c(-c2c(F)cccc2F)c(Cl)nc2ncnn12 [Example 2, 7-(tert-butoxyamino)-5-chloro-6-(2,6-difluorophenyl)[1,2,4)triazolo[1,5-a]pyrimidine] | 2.59 |

Test system: Fusarium nivale (var. majus)
Experiment: Fusarium nivale (var. majus) test (wheat)/protective
Format: in vivo
Conditions: protective, 500 g/ha, evaluation 4 days following inoculation
Procedure: (§1) To produce a suitable preparation of active compound, one part by weight of active compound is mixed with the stated amounts of solvent and emulsifier, and the concentrate is diluted with water to the desired concentration.
To test for protective activity, young plants are sprayed with the active compound preparation at the application rate indicated. After the spray coating has dried on, the plants are sprayed with a conidia suspension of Fusarium nivale (var. majus).
The plants are placed in a greenhouse under transparent incubation hoods at a temperature of about 15° C. and a relative humidity of about 100%.
Evaluation is made 4 days following inoculation. 0% denotes an efficacy corresponding to that of the control, whereas an efficacy of 100% means that no infestation is observed.

| Structure (SMILES) | Efficacy in % [%] |
| --- | --- |
| CNN(C)c1c(-c2c(F)cc(F)cc2F)c(Cl)nc2ncnn12 [drawing 45] | 93 |
| CCCN(N)c1c(-c2c(F)cc(F)cc2F)c(Cl)nc2ncnn12 [drawing 43] | 80 |
| CCN(N)c1c(-c2c(F)cc(F)cc2F)c(Cl)nc2ncnn12 [drawing 44] | 80 |

Test system: Venturia inaequalis
Experiment: Venturia test (apple)/protective
Format: in vivo
Conditions: protective, 100 g/ha, evaluation 10 days following inoculation
Procedure: as §1
To test for protective activity, young plants are sprayed with the active compound preparation at the application rate indicated. After the spray coating has dried on, the plants are inoculated with an aqueous conidia suspension of the apple scab causative organism, Venturia inaequalis, and then remain in an incubation cabin for 1 day at about 20° C. and 100% relative humidity.
The plants are placed in a greenhouse at a temperature of about 15° C. and a relative humidity of about 90%.
Evaluation is made 10 days following inoculation. 0% denotes an efficacy corresponding to that of the control, whereas an efficacy of 100% means that no infestation is observed.

| Structure (SMILES) | Efficacy in % [%] |
| --- | --- |
| CN(C)Nc1c(-c2c(F)cc(F)cc2F)c(Cl)nc2ncnn12 [drawing 46] | 94 |

Test system: Alternaria solani
Experiment: Alternaria test (tomato)/protective
Format: in vivo
Conditions: protective, 750 g/ha, evaluation 7 days after inoculation
Procedure: To produce an appropriate preparation of active compound, 1 part by weight of active compound is mixed with the stated amounts of solvent and emulsifier, and the concentrate is diluted with water to the desired concentration.
To test for protective activity, young tomato plants are sprayed with the active compound preparation at the application rate indicated. One day after treatment, the plants are inoculated with a spore suspension of Alternaria solani and then stand at 100% relative humidity and 20° C. for 24 h. The plants subsequently stand at 96% relative humidity and a temperature of 20° C.
Evaluation is made 7 days after inoculation. 0% denotes an efficacy corresponding to that of the control while an efficacy of 100% means that no infestation is observed.

| Structure (SMILES) | Efficacy in % [%] |
| --- | --- |
| NN(CC1CCCCC1)c1c(-c2c(F)cc(F)cc2F)c(Cl)nc2ncnn12 [drawing 50] | 94 |
| CCCN(N)c1c(-c2c(F)cc(F)cc2F)c(Cl)nc2ncnn12 [drawing 47] | 94 |
| C=CCNNc1c(-c2c(F)cc(F)cc2F)c(Cl)nc2ncnn12 [drawing 49] | 94 |
| CC(C)(C)NNc1c(-c2c(F)cc(F)cc2F)c(Cl)nc2ncnn12 [drawing 51] | 94 |
| CCN(N)c1c(-c2c(F)cc(F)cc2F)c(Cl)nc2ncnn12 [drawing 48] | 89 |

Test system: not given
Experiment: not given
Conditions: not given

| melting point [°C] | Structure (SMILES) |
| --- | --- |
| 165 to 168 | CN(C)Nc1c(-c2c(F)cc(F)cc2F)c(Cl)nc2ncnn12 [Example 1, 5-chloro-7-(2,2-dimethylhydrazino)-6-(2,4,6-trifluorophenyl)[1,2,4]-triazolo[1,5-a]pyrimidine] |
